Consider ten molecules from ChEMBL document CHEMBL1201862, “PubChem BioAssay data set” (2004).

Among the test systems are MDA-MB-231; Malme-3M; SF-539; DU-145; M14; UO-31; 786-0; NCI-H23; SK-OV-3; OVCAR-5; MDA-N; RPMI-8226; SNB-19; MDA-MB-435; MOLT-4; HT-29; RXF 393; OVCAR-8; SK-MEL-28; HOP-62.
Common to all, as to assay: NCI tumour cell line growth inhibition, 48 h

The structures appear in SMILES notation.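 Cultured in 96-well plates, cells were exposed to test compound for 48 hours across five concentrations. GI50 = concentration required for 50% inhibition of growth.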 Active and inactive are the calls of the source. Cut-off read from the data, not from the text of the source: active = GI50 up to about 1.1 µM and inactive = higher. Bounds are passed on as bounds.

Consider `CC(C)N1CC2CN(Cc3ccccc3)CC(C1)C2=O`, for which the GI50 with MDA-MB-231, in the test on Malme-3M, in the test with SF-539, in the test with DU-145, in the test on M14 and with UO-31 was > 100 µM (inactive) throughout. Also, the GI50 with 786-0, with NCI-H23, in the test on SK-OV-3, in the test with OVCAR-5, in the test on MDA-N and with RPMI-8226 was > 100 µM (inactive) each time. In addition, the GI50 in the test on SNB-19, in the test on MDA-MB-435, in the test on MOLT-4, in the test on HT-29, in the test with RXF 393 and in the test with OVCAR-8 was > 100 µM (inactive) in each case. The GI50 in the test with SK-MEL-28 and in the test on HOP-62 was > 100 µM (inactive) each time.

`CC(=O)OCC1OC(Nn2c(=O)[nH]c3ccccc3c2=O)C(OC(C)=O)C(OC(C)=O)C1OC(C)=O` (stereo not given): the GI50 was > 100 µM (inactive) in the test with MDA-MB-231; > 100 µM (inactive) in the test with Malme-3M; > 100 µM (inactive) in the test on SF-539; > 100 µM (inactive) in the test on DU-145; > 100 µM (inactive) with M14; 70.3 µM (inactive) with UO-31. Besides, the GI50 with 786-0, with NCI-H23, in the test on SK-OV-3, in the test with OVCAR-5, in the test with MDA-N and in the test with RPMI-8226 was > 100 µM (inactive) each time. In addition, the GI50 is > 100 µM (inactive) in the test with SNB-19; > 100 µM (inactive) in the test on MDA-MB-435; 97.7 µM (inactive) in the test on MOLT-4; > 100 µM (inactive) with HT-29; > 100 µM (inactive) with RXF 393; > 100 µM (inactive) with OVCAR-8. For the same molecule, the GI50 in the test on SK-MEL-28 and with HOP-62 was > 100 µM (inactive) in each case.

Turning to `CCCCC1Cc2cc(O)ccc2-c2n1c1cc(O)ccc1[n+]2C.CCCCC1Cc2cc(O)ccc2-c2n1c1ccc(O)cc1[n+]2C` (stereo not given), the GI50 in the test on MDA-MB-231 was 48 µM (inactive); with Malme-3M it was 19.5 µM (inactive); in the test on SF-539, 40.3 µM (inactive); in the test with DU-145 it was 78.7 µM (inactive); in the test with M14, 37.9 µM (inactive); in the test with UO-31 it was 65.6 µM (inactive). Moreover, the GI50 with 786-0 is 26.5 µM (inactive); with NCI-H23, 2.59 µM (inactive); with SK-OV-3, 57.3 µM (inactive); in the test on OVCAR-5 it was 63.5 µM (inactive); in the test with MDA-N it was 26.8 µM (inactive); in the test on RPMI-8226 it was 9.73 µM (inactive). The GI50 in the test on SNB-19 is 1.49 µM (inactive); in the test with MDA-MB-435, 19 µM (inactive); in the test on MOLT-4, 49.1 µM (inactive); in the test with HT-29, 41.7 µM (inactive); in the test on RXF 393, 34 µM (inactive); with OVCAR-8, 28.3 µM (inactive). Further, the GI50 with SK-MEL-28 is 6.64 µM (inactive); in the test on HOP-62, 43.8 µM (inactive).

On to `COc1cc2ccc1OCc1cccc(n1)COc1ccc(cc1OC)/C=N\CCNCC/N=C\2`, for which the GI50 in the test on MDA-MB-231 is 35.2 µM (inactive); with Malme-3M, > 100 µM (inactive); with SF-539 it was > 100 µM (inactive); in the test with DU-145, > 100 µM (inactive); with M14 it was > 100 µM (inactive); in the test with UO-31, > 100 µM (inactive). Besides, the GI50 was > 100 µM (inactive) in the test on 786-0; > 100 µM (inactive) in the test on NCI-H23; 63.4 µM (inactive) in the test with SK-OV-3; > 100 µM (inactive) in the test on OVCAR-5; > 100 µM (inactive) in the test on MDA-N; > 100 µM (inactive) in the test with RPMI-8226. For the same molecule, the GI50 in the test with SNB-19, with MDA-MB-435, in the test with MOLT-4, with HT-29, in the test with RXF 393 and in the test with OVCAR-8 was > 100 µM (inactive) throughout. Further, the GI50 with SK-MEL-28 and in the test on HOP-62 was > 100 µM (inactive) throughout.

Take `CCOC(=O)/C(C#N)=C/c1ccc2c(c1)CC1(C2)Cc2cc(CC)c(C(C)O)cc2C1` (stereo not given): the GI50 in the test on MDA-MB-231 was 10.5 µM (inactive); in the test on Malme-3M it was 6.11 µM (inactive); with SF-539 it was 9.82 µM (inactive); in the test with DU-145, 19.2 µM (inactive); in the test on M14, 5.32 µM (inactive); in the test with UO-31, 21.4 µM (inactive). In addition, the GI50 is 17.3 µM (inactive) in the test on 786-0; 13.5 µM (inactive) in the test with NCI-H23; 15.4 µM (inactive) with SK-OV-3; 33 µM (inactive) with OVCAR-5; 2.21 µM (inactive) in the test with MDA-N; 6.84 µM (inactive) in the test on RPMI-8226. Besides, the GI50 with SNB-19 was 15.1 µM (inactive); in the test on MDA-MB-435, 2.14 µM (inactive); with MOLT-4, 4.59 µM (inactive); with HT-29 it was 19.1 µM (inactive); with RXF 393, 6.79 µM (inactive); in the test on OVCAR-8, 15 µM (inactive). Also, the GI50 was 12.8 µM (inactive) with SK-MEL-28 and 14.2 µM (inactive) in the test on HOP-62.

With `COC1(OC)CCCc2c1no[n+]2[O-]`, the GI50 in the test with MDA-MB-231, in the test with Malme-3M, with SF-539, in the test with DU-145, in the test on M14 and with UO-31 was > 100 µM (inactive) throughout. Besides, the GI50 in the test on 786-0, in the test with NCI-H23, in the test with SK-OV-3, in the test with OVCAR-5, in the test with MDA-N and in the test with RPMI-8226 was > 100 µM (inactive) in each case. Further, the GI50 in the test with SNB-19, with MDA-MB-435, in the test with MOLT-4, with HT-29, in the test on RXF 393 and with OVCAR-8 was > 100 µM (inactive) throughout. For the same molecule, the GI50 with SK-MEL-28 and with HOP-62 was > 100 µM (inactive) in each case.

With `O=C(OC(/C=C/c1ccccc1)P1(=O)N(Cc2ccccc2)[C@@H]2CCCC[C@H]2N1Cc1ccccc1)c1ccccc1` (stereo not given in full), the GI50 is 2.82 µM (inactive) with MDA-MB-231; 3.54 µM (inactive) with Malme-3M; 3.17 µM (inactive) with SF-539; 6.75 µM (inactive) with DU-145; 3.69 µM (inactive) in the test on M14; 3.34 µM (inactive) in the test on UO-31. In addition, the GI50 was 4.38 µM (inactive) in the test with 786-0; 3.09 µM (inactive) in the test with NCI-H23; 5.06 µM (inactive) in the test with SK-OV-3; 4.43 µM (inactive) in the test with OVCAR-5; 3.8 µM (inactive) in the test on MDA-N; 2.21 µM (inactive) with RPMI-8226. The GI50 in the test with SNB-19 was 5.43 µM (inactive); in the test on MDA-MB-435 it was 3.66 µM (inactive); in the test with MOLT-4, 2.15 µM (inactive); in the test with HT-29 it was 3.4 µM (inactive); in the test on RXF 393 it was 3.78 µM (inactive); in the test on OVCAR-8, 3.29 µM (inactive). Further, the results for the GI50 in the test on SK-MEL-28 and in the test on HOP-62 were 9.82 µM (inactive) and 5.38 µM (inactive), respectively.

For the molecule `Nc1ncnc2oc(C3OC(COC(=O)c4ccccc4)C(OC(=O)c4ccccc4)C3OC(=O)c3ccccc3)nc12` (stereo not given), the GI50 was > 100 µM (inactive) in the test with MDA-MB-231; 96.2 µM (inactive) with Malme-3M; > 100 µM (inactive) with SF-539; > 100 µM (inactive) with DU-145; > 100 µM (inactive) in the test on M14; > 100 µM (inactive) in the test on UO-31. Further, the GI50 with 786-0, in the test with NCI-H23, in the test on SK-OV-3, with OVCAR-5, in the test on MDA-N and in the test on RPMI-8226 was > 100 µM (inactive) each time. Moreover, the GI50 in the test with SNB-19, in the test with MDA-MB-435, in the test on MOLT-4, in the test on HT-29, in the test with RXF 393 and in the test on OVCAR-8 was > 100 µM (inactive) in each case. The GI50 with SK-MEL-28 and in the test with HOP-62 was > 100 µM (inactive) throughout.

Regarding `CC1OC(OC2C(O[C@H]3CC[C@@]4(C)C(=CC[C@H]5[C@@H]6C[C@@H]7O[C@]8(CC[C@@H](C)CO8)[C@@H](C)[C@@H]7[C@@]6(C)CC[C@@H]54)C3)OC(CO)C(O)C2O)C(O)C(O)C1O` (stereo not given in full), the GI50 in the test on MDA-MB-231 is 1.14 µM (inactive); in the test with Malme-3M it was 3.15 µM (inactive); in the test on SF-539 it was 1.21 µM (inactive); in the test with DU-145, 1.26 µM (inactive); in the test on M14, 1.22 µM (inactive); with UO-31, 0.638 µM (active). In addition, the GI50 in the test on 786-0 is 1.14 µM (inactive); in the test on NCI-H23 it was 2.28 µM (inactive); in the test on SK-OV-3, 3.05 µM (inactive); with OVCAR-5 it was 2.93 µM (inactive); in the test with MDA-N, 3.29 µM (inactive); in the test with RPMI-8226, 0.698 µM (active). In addition, the GI50 is 1.01 µM (active) in the test on SNB-19; 1.41 µM (inactive) in the test on MDA-MB-435; 2.64 µM (inactive) in the test with MOLT-4; 0.962 µM (active) with HT-29; 1.54 µM (inactive) in the test on RXF 393; 1.45 µM (inactive) in the test with OVCAR-8. The GI50 is 5.31 µM (inactive) with SK-MEL-28 and 1.34 µM (inactive) with HOP-62.

Turning to `Cc1[nH]n(-c2ncc(C#N)c(=O)[nH]2)c(=O)c1CCO`, the GI50 with MDA-MB-231, in the test on Malme-3M, in the test on SF-539, in the test on DU-145, with M14 and in the test with UO-31 was > 100 µM (inactive) each time. Moreover, the GI50 with 786-0, in the test with NCI-H23, in the test on SK-OV-3, in the test on OVCAR-5, in the test on MDA-N and with RPMI-8226 was > 100 µM (inactive) each time. Also, the GI50 in the test with SNB-19 is > 100 µM (inactive); in the test on MDA-MB-435 it was > 100 µM (inactive); in the test on MOLT-4 it was 75.5 µM (inactive); in the test on HT-29, > 100 µM (inactive); in the test on RXF 393, > 100 µM (inactive); with OVCAR-8, > 100 µM (inactive). For the same molecule, the GI50 in the test with SK-MEL-28 and with HOP-62 was > 100 µM (inactive) in each case.
